Marks after values point to notes of the source that are not given here.
Assays:
[1] = Plasma pharmacokinetics after single ascending doses of LED-E (VNRX-7145-101 Part 1); type: in vivo; details: human, oral; for AUC(0-inf) / Cmax / half-life: geometric mean (CV %); for half-life: read-out: t1/2 (converted); for Tmax: median (range)
Procedure: (§1) Quantitation used separate weighted 1 /x^2 linear least-squares regression analyses generated from calibration standards. Exploratory screening for metabolites was performed for some samples. […] Single-dose plasma pharmacokinetic parameters were determined in Part 1, and both single-dose (Day 1) and multiple-dose (Day 12) parameters were determined in Part 2. […] Dose proportionality was analyzed using a power model in which pharmacokinetic exposure parameters and dose were converted to the natural log and linear regression results were reported, with the slope as the power estimate ([15]). […] In Part 2, achievement of steady-state concentrations was assessed using Tukey’s multiple comparison test for pre-dose and all dosing days (Days 2 to 10) for each dose level separately. In both studies, plasma pharmacokinetic parameters were calculated using WinNonlin (Certara; Radnor, PA), and urine pharmacokinetic parameters were calculated using SAS (SAS Institute; Cary, NC).

[2] = Plasma pharmacokinetics on Day 10 after multiple doses of LED-E q8h (VNRX-7145-101 Part 2, VNRX-7145-102 Part 2); type: in vivo, human; details: for AUC / Cmax / Tmax / half-life: human, oral, plasma; for Tmax: median (range)
Procedure: as §1, with “Single-dose plasma pharmacokinetic parameters were determined in Part 1, and both single-dose (Day 1) and multiple-dose (Day 12) parameters were determined in Part 2.” left out, “separately. […] Plasma pharmacokinetic parameters were calculated using noncompartmental analysis of the plasma and urine concentration-time data. […] AUCinf and Cmax were natural log-transformed before analysis, using a linear mixed effects model. […]” for “separately.”

[3] = Urinary pharmacokinetics after single doses of LED-E; type: in vivo, human; details: urine, geometric mean (geometric CV %); for CL renal: human, oral
Procedure: Plasma and urine pharmacokinetics samples were assayed for LED-E, LED, and CTB, as appropriate using validated bioanalytical methods. […] Quantitation used separate weighted 1 /x^2 linear least-squares regression analyses generated from calibration standards. Exploratory screening for metabolites was performed for some samples. In both studies, plasma pharmacokinetic parameters were calculated using WinNonlin (Certara; Radnor, PA), and urine pharmacokinetic parameters were calculated using SAS (SAS Institute; Cary, NC).

[4] = Urinary pharmacokinetics on Day 10 after multiple doses of LED-E q8h; type: in vivo, human; details: urine; for CL renal: oral; for CL renal / Ae0–8 / Ae0–48: geometric mean (geometric CV %); for Ae0–8 / Ae0–48: after last dose (Day 10)
Procedure: Quantitation used separate weighted 1 /x^2 linear least-squares regression analyses generated from calibration standards. Exploratory screening for metabolites was performed for some samples. […] Plasma pharmacokinetic parameters were calculated using noncompartmental analysis of the plasma and urine concentration-time data. […] AUCinf and Cmax were natural log-transformed before analysis, using a linear mixed effects model. […] In both studies, plasma pharmacokinetic parameters were calculated using WinNonlin (Certara; Radnor, PA), and urine pharmacokinetic parameters were calculated using SAS (SAS Institute; Cary, NC).

[5] = Urinary recovery on Day 10 after multiple doses of CTB + LED-E q8h (VNRX-7145-102 Part 3); details: urine, geometric mean (geometric CV %); for CL renal: human, oral, CLr
[6] = Plasma pharmacokinetics on Day 10 after multiple doses of CTB + LED-E q8h (VNRX-7145-102 Part 3); details: human, oral; for AUC: AUCtau; for AUC / Cmax / half-life: geometric mean (CV %)
[7] = 1000 mg, single dose LED-E 1,000 mg
[8] = Day 10, LED-E 150 mg q8h, geometric mean (CV %)
[9] = Day 10, LED-E 300 mg q8h, geometric mean (CV %)
[10] = Day 10, LED-E 500 mg q8h, geometric mean (CV %)
[11] = multiple doses LED-E 150 mg q8h
[12] = multiple doses LED-E 300 mg q8h
[13] = multiple doses LED-E 500 mg q8h
[14] = Day 10, CTB 400 mg + LED-E 300 mg q8h
[15] = Day 10, CTB 400 mg + LED-E 500 mg q8h

SMILES: CCC(=O)N[C@H]1Cc2cccc(C(=O)O)c2OB1O [Ledaborbactam, ledaborbactam]
- AUC(0-inf) [1, 7]: 114000 ng·h/mL
- Cmax [1, 7]: 26500 ng/mL
- half-life [1, 7]: 11.3 h
- Tmax [1, 7]: 2 h
- AUC(0-inf) ([1]; single dose LED-E 100 mg): 15400 ng·h/mL
- Cmax ([1]; single dose LED-E 100 mg): 4010 ng/mL
- half-life ([1]; single dose LED-E 100 mg): 5.53 h
- AUC(0-inf) ([1]; single dose LED-E 200 mg): 26200 ng·h/mL
- Cmax ([1]; single dose LED-E 200 mg): 5970 ng/mL
- half-life ([1]; single dose LED-E 200 mg): 6.1 h
- AUC(0-inf) ([1]; single dose LED-E 300 mg): 33100 ng·h/mL
- Cmax ([1]; single dose LED-E 300 mg): 7570 ng/mL
- half-life ([1]; single dose LED-E 300 mg): 7.48 h
- AUC(0-inf) ([1]; single dose LED-E 500 mg): 69300 ng·h/mL
- Cmax ([1]; single dose LED-E 500 mg): 16800 ng/mL
- half-life ([1]; single dose LED-E 500 mg): 11.3 h
- AUC(0-inf) ([1]; single dose LED-E 800 mg): 125000 ng·h/mL
- Cmax ([1]; single dose LED-E 800 mg): 24000 ng/mL
- half-life ([1]; single dose LED-E 800 mg): 8.59 h
- Tmax ([1]; single dose LED-E 800 mg): 2 h
- Steady-state plasma concentrations reached by ([2]; LED-E q8h dosing): ≤ 3 days
- AUC ([2]; Day 10, LED-E 75 mg q8h, 0 to 8 h post-dose, geometric mean (CV %)): 13900 ng·h/mL
- Cmax ([2]; Day 10, LED-E 75 mg q8h, geometric mean (CV %)): 3690 ng/mL
- Tmax ([2]; Day 10, LED-E 75 mg q8h): 1 h
- AUC [2, 8]: 20800 ng·h/mL
- Cmax [2, 8]: 5870 ng/mL
- Tmax ([2]; Day 10, LED-E 150 mg q8h): 0.75 h
- AUC [2, 9]: 40900 ng·h/mL
- Cmax [2, 9]: 11600 ng/mL
- Tmax ([2]; Day 10, LED-E 300 mg q8h): 1.13 h
- AUC [2, 10]: 70000 ng·h/mL
- Cmax [2, 10]: 15800 ng/mL
- half-life ([2]; 75 mg, Day 10, LED-E 75 mg q8h, geometric mean (CV %), read-out: t1/2 (converted)): 9.3 h
- half-life ([2]; 150 mg, Day 10, LED-E 150 mg q8h, geometric mean (CV %), read-out: t1/2 (converted)): 11.4 h
- half-life ([2]; 300 mg, Day 10, LED-E 300 mg q8h, geometric mean (CV %), read-out: t1/2 (converted)): 11.3 h
- half-life ([2]; 500 mg, Day 10, LED-E 500 mg q8h, geometric mean (CV %), read-out: t1/2 (converted)): 12.5 h
- half-life ([2]; Day 10, after 10 days of q8h dosing, across dose groups, read-out: Terminal half-life (t1/2) in plasma): 11 to 12 h
- CL renal ([3]; single dose LED-E 300 mg): 66.3 mL/min
- CL renal ([3]; single dose LED-E 500 mg): 53.3 mL/min
- CL renal ([3]; single dose LED-E 800 mg): 58.7 mL/min
- CL renal ([3]; single dose LED-E 1000 mg): 75.5 mL/min
- Ae0–8 ([3]; single dose LED-E 300 mg): 113 (23.3) mg
- Ae0–48 ([3]; single dose LED-E 300 mg): 131 (20.3) mg
- Ae0–8 ([3]; single dose LED-E 500 mg): 190 (14.1) mg
- Ae0–48 ([3]; single dose LED-E 500 mg): 220 (12.2) mg
- Ae0–8 ([3]; single dose LED-E 800 mg): 364 (6.14) mg
- Ae0–48 ([3]; single dose LED-E 800 mg): 438 (3.3) mg
- Ae0–8 ([3]; single dose LED-E 1000 mg): 459 (16.6) mg
- Ae0–48 ([3]; single dose LED-E 1000 mg): 515 (16.9) mg
- CL renal ([4]; human, multiple doses LED-E 75 mg q8h): 44.2 mL/min
- CL renal ([4]; human, multiple doses LED-E 150 mg q8h): 51.8 mL/min
- CL renal ([4]; human, multiple doses LED-E 300 mg q8h): 51.5 mL/min
- CL renal ([4]; human, multiple doses LED-E 500 mg q8h): 82 mL/min
- bioavailability ([4]; human, after oral dosing of LED-E, inferred from urinary excretion): ≥ 68%
- Ae0–8 ([4]; multiple doses LED-E 75 mg q8h): 43.1 (6.95) mg
- Ae0–48 ([4]; multiple doses LED-E 75 mg q8h): 51.6 (7.80) mg
- Ae0–48 ([4]; multiple doses LED-E 75 mg q8h, listed as LED): 51.6 mg
- Ae0–8 [4, 11]: 73.1 (10.0) mg
- Ae0–48 [4, 11]: 86.6 (11.1) mg
- Ae0–8 [4, 12]: 137 (34.2) mg
- Ae0–48 [4, 12]: 166 (27.8) mg
- Ae0–8 [4, 13]: 283 (7.8) mg
- Ae0–48 [4, 13]: 345 (11.2) mg
- Ae0–48 ([4]; multiple doses LED-E 500 mg q8h, listed as LED): 345 mg
- Ae0–8 [5, 14]: 156 (11.3) mg
- Ae0–8 [5, 15]: 243 (22.8)^d mg
- CL renal [5, 14]: 85.8 mL/min
- CL renal [5, 15]: 74.8 mL/min
- AUC [6, 14]: 33300 ng·h/mL
- AUC [6, 15]: 62200 ng·h/mL
- Cmax [6, 14]: 8470 ng/mL
- Cmax [6, 15]: 16200 ng/mL
- Tmax ([6]; Tmax, Day 10, CTB 400 mg + LED-E 300 mg q8h, median (range)): 1 h
- half-life ([6]; t1/2, Day 10, CTB 400 mg + LED-E 300 mg q8h): 11.4 h
- half-life ([6]; t1/2, Day 10, CTB 400 mg + LED-E 500 mg q8h): 12.3 h

Source: publication PMC12406652 (Antimicrobial Agents and Chemotherapy, 2025)
